In patent US20250000874A1, “BACTERIAL METABOLITES AND THEIR USE IN REDUCING INFLAMMATION” (LOYOLA UNIVERSITY OF CHICAGO, priority 2023, published 2025):

Key:
Raw 264.7 Cells = test: JE on TNF-α and IL-6 production by Raw 264.7 cells upon TLR agonists; assay type: cell-based, mouse; settings: for decrease in TNF-α production: vs untreated macrophages
Protocol: (§1) FIG. 13. The Effect of JE on TNF-α Production by Raw 264.7 Cells Upon Stimulation with TLR Agonists. Macrophages were incubated overnight with JE at a concentration of 50 μM at t 37° C., 5% CO2. The following day, the macrophages were stimulated with 10 ng/ml of LPS, 1 μg/ml of FLG-St, 3 μg/ml of PAM-3csk, 1 μM of ODN and 20 μg/ml of Poly: IC for 3 hours. Supernatants were collected, and TNF-α was measured by ELISA. The data are presented as mean±SEM (n=6). *p<0.05; **p<0.01; ***p<0.001. One of three experiments is shown.
FIG. 14. The Effect of JE on TNF-α Production by Raw 264.7 Cells Upon Stimulation with TLR Agonists. Macrophages were incubated overnight with JE at a concentration of 50 μM at 37° C., 5% CO2. The following day, the macrophages were stimulated with 1 μg/ml of FSL-1 2 μg/ml of Imiquimod for 3 hours. Supernatants were collected and TNF-α was measured by ELISA. Data are presented as mean±SEM (n=6). *p<0.05; **p<0.01; ***p <0.001. One of three experiments is shown.
as §1, with “15.” for “13.”, “IL-6” for “TNF-α”, “TLR agonists at the same concentrations that I used” for “10 ng/ml of LPS, 1 μg/ml of FLG-St, 3 μg/ml of PAM-3csk, 1 μM of ODN and 20 μg/ml of Poly: IC”, “TNF-α induction.” for “3 hours.”
Murine macrophages, both RAW 264.7 macrophages and bone marrow-derived macrophages (BMDMs), were seeded and then pretreated overnight with the metabolite JE. The following day, the macrophages were stimulated with one of TLR agonists, including LPS, FLA-ST, ODN, Pam3SCK4, Poly: IC LMW, FSL, and Imiquimod for 3 hours, then the production of TNF-α, and IL-6 in the culture supernatants was measured by ELISA.

[1] = tested on: Bone Marrow Derived Macrophage (BMDM); test: NC on TNFα production by BMDMs in response to TLR agonists (Example 7); assay type: cell-based, mouse
Protocol: FIG. 32. NC Reduces TNFα Response to Toll 3 Agonist. Macrophages were cultured at a uniform density and allowed to adhere (in the case of BMDMs) or differentiate with PMA (in the case of THP-1s). macrophages were then incubated overnight in NC at a concentration of 50 uM at 37° C. The following day, the BMDMs were stimulated with P(I:C) at 50 ug/mL, 100 ug/mL, or 200 ug/mL for four hours and the THP-1s were stimulated at 200 […]. Supernatants were collected and TNFα concentrations were determined via ELISA.
FIG. 33. TNFα production from Bone Marrow Derived Macrophage (BMDM) stimulation. BMDMs were cultured in DMEM supplemented with Macrophage Colony Stimulating Factor (M-CSF) at 10 ng/ml. The macrophages were then incubated overnight in NC at a concentration of 50 uM at 37° C. The following day they were stimulated with LPS at 1 ng/ml, 10 ng/ml for four hours. Supernatants were collected and TNFα concentrations were determined via ELISA.
Bone marrow derived macrophages were collected from adult mice (6-8 weeks old). Femurs were obtained and cut with scissors. The connecting muscles were removed and the bones were flushed with PBS. PBS was collected and cells were counted and adjusted to the desired concentrations. […] After 7 days the cells were ready for use. […]
Once ready, macrophages were then incubated with NC at a concentration of 50 uM overnight. […] Samples were treated for 4 hours and then Supernatant was then collected and the concentration of TNFα was then determined via the commercially available ELISA MAX Deluxe kit (Biolegend), with measurements reported in pg/mL.
To investigate the effects NC, macrophages were stimulated in vitro with various TLR agonists, and the production of cytokines was measured via ELISA. […] After 4 hours, supernatant was collected and the concentration of TNFα was determined via ELISA.
Further investigation of NC's impact on TLR signaling involved treating BMDMs with the TLR 4 agonist LPS. […] After 4 hours supernatant was collected and concentration of TNFα was measured via ELISA. […]

[2] = JE 50 μM overnight, TLR agonists 3 hours, vs media with TLR agonists

Row | SMILES | decrease in TNF-α production (Raw 264.7 Cells; JE 50 μM overnight, TLR 1/2 agonist PAM-3CSK) | TNF-α secretion (Raw 264.7 Cells; JE 50 μM overnight, TLR2/6 agonist FSL-1) | TNF-α production (Raw 264.7 Cells; JE 50 μM overnight, TLR4 agonist LPS) | decrease in TNF-α production (Raw 264.7 Cells; JE 50 μM overnight, TLR 5 agonist FLG-ST) | TNF-α production (Raw 264.7 Cells; JE 50 μM overnight, TLR7 agonist Imiquimod) | production of IL-6 (Raw 264.7 Cells; [2]) | production of TNF-α (Raw 264.7 Cells; [2]) | TNF-α secretion (Raw 264.7 Cells; JE 50 μM overnight, TLR-3 agonist Poly: IC LMW) | decrease in IL-6 secreted (Raw 264.7 Cells; JE pretreatment, LPS, relative to untreated macrophages) | production and secretion of TNFα ([1]; NC 50 μM overnight, Poly (I:C) 50, 100, 200 μg/ml, 4 hours) | production of TNFα ([1]; NC alone, 50 μM overnight) | cytokine (TNFα) production in response to TLR 4 agonist LPS ([1]; NC overnight, LPS 1 ng/ml and 10 ng/ml, 4 hours)
1 | CC(=O)O[C@@H]1CC[C@H]2[C@H]3CC[C@H]4CC(F)(F)CC[C@]4(C)[C@H]3CC[C@]12C [JE, 3,3-Difluoro-5-alpha-androstan-17-beta-yl acetate] | 4 fold | completely abolished | reduced | 4 fold | reduced | significantly reduced | significantly reduced | completely abolished | 4 fold |  |  | 
2 | CCCCCCCCCCCCCCCC(=O)N[C@@H](C(=O)O)[C@H](C)O [NC, N-Palmitoyl-D-Threonine] |  |  |  |  |  |  |  |  |  | reduced | not found to increase | able to reduce
